Results: the NIST ThermoML archive (doi:10.1016/j.jct.2014.12.002)
± gives the expanded uncertainty stated by the source.

Key:
[1] = Crystal
[2] = molar heat capacity at constant pressure; details: 100 kPa, Small sample (50 mg) DSC
[3] = Molar enthalpy of transition or fusion; details: Crystal; DSC

Structure (SMILES): N#Cc1ccccc1-c1ccc(CBr)cc1 [4'-(bromomethyl)-2-cyanobiphenyl]
- molar volume ([1]; 293.15 K, 101.33 kPa, Pycnometric method): 0.000223 ± 1.2e-06 m3/mol
- Normal melting temperature ([1]; DTA): 126.06 ± 0.53 °C
- molar heat capacity at constant pressure ([2]; 293.15 K, Crystal): 253.23 ± 11 J/K/mol
- molar heat capacity at constant pressure ([2]; 297.15 K, Crystal): 256.2 ± 11 J/K/mol
- molar heat capacity at constant pressure ([2]; 301.15 K, Crystal): 259.07 ± 11 J/K/mol
- molar heat capacity at constant pressure ([2]; 305.15 K, Crystal): 261.5 ± 11 J/K/mol
- molar heat capacity at constant pressure ([2]; 309.15 K, Crystal): 265.03 ± 11 J/K/mol
- molar heat capacity at constant pressure ([2]; 313.15 K, Crystal): 268.1 ± 11 J/K/mol
- molar heat capacity at constant pressure ([2]; 317.15 K, Crystal): 271.41 ± 12 J/K/mol
- molar heat capacity at constant pressure ([2]; 321.15 K, Crystal): 274.74 ± 12 J/K/mol
- molar heat capacity at constant pressure ([2]; 325.15 K, Crystal): 277.96 ± 12 J/K/mol
- molar heat capacity at constant pressure ([2]; 329.15 K, Crystal): 281.51 ± 12 J/K/mol
- molar heat capacity at constant pressure ([2]; 333.15 K, Crystal): 284.37 ± 12 J/K/mol
- molar heat capacity at constant pressure ([2]; 337.15 K, Crystal): 287.74 ± 12 J/K/mol
- molar heat capacity at constant pressure ([2]; 341.15 K, Crystal): 291.32 ± 12 J/K/mol
- molar heat capacity at constant pressure ([2]; 345.15 K, Crystal): 294.58 ± 12 J/K/mol
- molar heat capacity at constant pressure ([2]; 349.15 K, Crystal): 298.15 ± 13 J/K/mol
- molar heat capacity at constant pressure ([2]; 353.15 K, Crystal): 300.62 ± 13 J/K/mol
- molar heat capacity at constant pressure ([2]; 357.15 K, Crystal): 303.82 ± 13 J/K/mol
- molar heat capacity at constant pressure ([2]; 361.15 K, Crystal): 306.86 ± 13 J/K/mol
- molar heat capacity at constant pressure ([2]; 365.15 K, Crystal): 309.09 ± 13 J/K/mol
- molar heat capacity at constant pressure ([2]; 369.15 K, Crystal): 314.38 ± 13 J/K/mol
- molar heat capacity at constant pressure ([2]; 373.15 K, Crystal): 317.58 ± 13 J/K/mol
- molar heat capacity at constant pressure ([2]; 433.15 K, Liquid): 408.2 ± 17 J/K/mol
- molar heat capacity at constant pressure ([2]; 437.15 K, Liquid): 410.68 ± 17 J/K/mol
- molar heat capacity at constant pressure ([2]; 441.15 K, Liquid): 413.2 ± 18 J/K/mol
- molar heat capacity at constant pressure ([2]; 445.15 K, Liquid): 415.66 ± 18 J/K/mol
- molar heat capacity at constant pressure ([2]; 449.15 K, Liquid): 417.96 ± 18 J/K/mol
- molar heat capacity at constant pressure ([2]; 453.15 K, Liquid): 420.63 ± 18 J/K/mol
- molar heat capacity at constant pressure ([2]; 457.15 K, Liquid): 423.5 ± 18 J/K/mol
- molar heat capacity at constant pressure ([2]; 461.15 K, Liquid): 425.47 ± 18 J/K/mol
- molar heat capacity at constant pressure ([2]; 465.15 K, Liquid): 427.72 ± 18 J/K/mol
- molar heat capacity at constant pressure ([2]; 469.15 K, Liquid): 429.91 ± 18 J/K/mol
- molar heat capacity at constant pressure ([2]; 473.15 K, Liquid): 432.48 ± 18 J/K/mol
- molar heat capacity at constant pressure ([2]; 477.15 K, Liquid): 434.9 ± 18 J/K/mol
- molar heat capacity at constant pressure ([2]; 481.15 K, Liquid): 437.62 ± 19 J/K/mol
- molar heat capacity at constant pressure ([2]; 485.15 K, Liquid): 440.31 ± 19 J/K/mol
- molar heat capacity at constant pressure ([2]; 489.15 K, Liquid): 441.88 ± 19 J/K/mol
- molar heat capacity at constant pressure ([2]; 493.15 K, Liquid): 444.14 ± 19 J/K/mol
- Molar enthalpy of transition or fusion [3]: 7.05 ± 0.155 kcal/mol
